Measured values: ChEMBL document CHEMBL1138210, “Discovery of potent, orally-active, and muscle-selective androgen receptor modulators based on an N-aryl-hydroxybicyclohydantoin scaffold” (J Med Chem, 2006)

Experiments:
Androgen receptor [1] = molecular target: T1, Androgen receptor (Rattus norvegicus, UniProt P15207)
T1 sequence (P15207 whole entry): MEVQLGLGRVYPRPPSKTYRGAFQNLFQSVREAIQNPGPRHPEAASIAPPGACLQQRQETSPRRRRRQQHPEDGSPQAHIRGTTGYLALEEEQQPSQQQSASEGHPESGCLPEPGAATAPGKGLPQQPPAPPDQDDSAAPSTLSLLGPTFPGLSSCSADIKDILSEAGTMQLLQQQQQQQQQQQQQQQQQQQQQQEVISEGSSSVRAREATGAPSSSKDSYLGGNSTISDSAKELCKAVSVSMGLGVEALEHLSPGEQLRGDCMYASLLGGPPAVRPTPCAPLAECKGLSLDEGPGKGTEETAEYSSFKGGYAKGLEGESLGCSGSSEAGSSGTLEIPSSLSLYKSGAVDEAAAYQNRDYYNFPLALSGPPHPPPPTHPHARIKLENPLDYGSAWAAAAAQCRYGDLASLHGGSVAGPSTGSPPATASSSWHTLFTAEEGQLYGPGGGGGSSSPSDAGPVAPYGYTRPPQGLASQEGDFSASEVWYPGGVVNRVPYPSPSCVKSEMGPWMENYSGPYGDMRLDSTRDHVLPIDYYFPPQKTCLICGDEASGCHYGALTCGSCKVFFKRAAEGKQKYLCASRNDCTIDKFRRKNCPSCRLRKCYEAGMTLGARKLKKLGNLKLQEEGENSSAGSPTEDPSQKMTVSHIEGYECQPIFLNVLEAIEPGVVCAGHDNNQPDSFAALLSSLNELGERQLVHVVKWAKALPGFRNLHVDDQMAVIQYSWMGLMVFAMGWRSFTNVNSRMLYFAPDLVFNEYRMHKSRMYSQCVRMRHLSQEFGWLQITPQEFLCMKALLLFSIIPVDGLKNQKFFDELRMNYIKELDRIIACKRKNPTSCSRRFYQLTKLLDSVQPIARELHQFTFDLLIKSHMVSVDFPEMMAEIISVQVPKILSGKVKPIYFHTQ
Description: Agonist activity at rat AR transfected in mouse C2C12 cells by luciferase reporter transactivation assay

Androgen receptor [2] = molecular target: T2, Androgen receptor (Homo sapiens, UniProt P10275); test: biochemical
T2 sequence (P10275 whole entry): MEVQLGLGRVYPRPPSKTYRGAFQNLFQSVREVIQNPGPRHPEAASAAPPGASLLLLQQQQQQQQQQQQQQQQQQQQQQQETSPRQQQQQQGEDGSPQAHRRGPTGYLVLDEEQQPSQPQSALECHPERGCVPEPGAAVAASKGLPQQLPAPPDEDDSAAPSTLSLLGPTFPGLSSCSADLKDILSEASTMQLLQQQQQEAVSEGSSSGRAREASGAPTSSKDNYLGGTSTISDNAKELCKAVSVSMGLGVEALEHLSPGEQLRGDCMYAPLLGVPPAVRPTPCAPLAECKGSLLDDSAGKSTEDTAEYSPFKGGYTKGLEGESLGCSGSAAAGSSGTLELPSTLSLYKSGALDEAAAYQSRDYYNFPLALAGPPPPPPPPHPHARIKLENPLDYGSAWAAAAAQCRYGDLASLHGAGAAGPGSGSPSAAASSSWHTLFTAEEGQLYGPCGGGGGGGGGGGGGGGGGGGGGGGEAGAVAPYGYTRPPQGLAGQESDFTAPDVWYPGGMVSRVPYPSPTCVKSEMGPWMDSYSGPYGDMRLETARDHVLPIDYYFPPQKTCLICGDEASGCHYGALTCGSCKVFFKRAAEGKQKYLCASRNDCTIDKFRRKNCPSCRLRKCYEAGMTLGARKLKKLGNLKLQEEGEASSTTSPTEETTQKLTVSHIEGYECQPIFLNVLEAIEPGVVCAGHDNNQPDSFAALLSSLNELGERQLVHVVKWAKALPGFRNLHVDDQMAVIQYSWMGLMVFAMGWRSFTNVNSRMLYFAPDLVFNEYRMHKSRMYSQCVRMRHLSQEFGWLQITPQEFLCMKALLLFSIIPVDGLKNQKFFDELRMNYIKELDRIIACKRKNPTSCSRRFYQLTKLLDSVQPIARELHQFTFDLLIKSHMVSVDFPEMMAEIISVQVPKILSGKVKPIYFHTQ
Description: Displacement of [3H]DHT from human AR in MDA453 cells

Androgen receptor [3] = molecular target: T1, Androgen receptor; test: Antagonist activity against rat AR transfected in mouse C2C12 cells by luciferase reporter transactivation assay relative to DHT; type: functional, cell-based
Rattus norvegicus [4] = test: Stimulation of levator ani muscle growth in orally dosed castrated Sprague-Dawley rat; type: functional; details: po
Rattus norvegicus [5] = test: Stimulation of prostate growth in orally dosed castrated Sprague-Dawley rat; type: functional; details: Prostate gland, po
Rattus norvegicus [6] = test: Inhibition of LH secretion in orally dosed castrated Sprague-Dawley rat; type: functional; details: po
Rattus norvegicus [7] = test: Stimulation of levator ani muscle growth in sc dosed castrated Sprague-Dawley rat; type: functional
Rattus norvegicus [8] = test: Stimulation of prostate growth in sc dosed castrated Sprague-Dawley rat; type: functional; details: Prostate gland
Rattus norvegicus [9] = test: Inhibition of LH secretion in sc dosed castrated Sprague-Dawley rat; type: functional, organism-based
Rattus norvegicus [10] = test: Selectivity for stimulation of levetor ani muscle over suppression of LH secretion in sc dosed castrated Sprague-Dawley rat; type: functional, Muscle tissue
Rattus norvegicus [11] = test: Selectivity for stimulation of levator ani muscle over prostate in sc dosed castrated Sprague-Dawley rat; type: functional

SMILES | EC50 (Androgen receptor [1]) [nM] | Ki (Androgen receptor [2]) [nM] | other results
O=C1[C@H]2C[C@H](O)CN2C(=O)N1c1ccc([N+](=O)[O-])c2ccccc12 | 265 | 4.3 | 
N#Cc1ccc(N2C(=O)[C@H]3[C@@H]4CC[C@@H](C4)N3C2=O)c2ccccc12 | > 1000 | 24 | IC50 (Androgen receptor [3]): 260 nM
O=C1[C@H]2C[C@@H](O)CN2C(=O)N1c1ccc([N+](=O)[O-])c2ccccc12 | 320 | 1.5 | 
O=C1[C@@H]2[C@H](O)CCN2C(=O)N1c1ccc([N+](=O)[O-])c2ccccc12 | 1.5 | 2.1 | 
O=C1C2CCCN2C(=O)N1c1ccc([N+](=O)[O-])c2ccccc12 (centres undefined) | 270 | 1.7 | 
O=C1[C@H]2[C@@H]3CC[C@@H](C3)N2C(=O)N1c1ccc([N+](=O)[O-])c2ccccc12 | 385 | 1 | 
N#Cc1ccc(N2C(=O)[C@@H]3[C@H](O)CCN3C2=O)c2ccccc12 | 2.3 |  | ED50 (Rattus norvegicus [4]): 2 mg/kg; ED50 (Rattus norvegicus [5]): > 100 mg/kg; ED50 (Rattus norvegicus [6]): 60 mg/kg
N#Cc1ccc(N2C(=O)C3C(O)CCN3C2=O)c2ccccc12 (racemic) | 6.3 |  | 
O=C1C2C(O)CCN2C(=O)N1c1ccc([N+](=O)[O-])c2ccccc12 (racemic) | 4.4 | 3.5 | 
O=C1[C@@H]2[C@H](O)CCN2C(=O)N1c1ccc([N+](=O)[O-])c2ccccc12 (single isomer, unassigned) | 281 | 1.5 | 
N#Cc1ccc(N2C(=O)[C@@H]3[C@H](O)CCN3C2=O)c2ccccc12 (single isomer, unassigned) | 1300 |  | IC50 (Androgen receptor [3]): 60 nM
CCC(=O)O[C@H]1CC[C@H]2[C@@H]3CCC4=CC(=O)CC[C@]4(C)[C@H]3CC[C@]12C [TESTOSTERONE PROPIONATE] |  |  | ED50 (Rattus norvegicus [7]): 0.21 mg/kg; ED50 (Rattus norvegicus [8]): 0.42 mg/kg; EC50 (Rattus norvegicus [9]): 0.26 mg/kg; Ratio ED50 (Rattus norvegicus [10]): 1.2; Ratio ED50 (Rattus norvegicus [11]): 2
